How the values were obtained:
[1] = target: T1, Protein polybromo-1/von Hippel-Lindau disease tumor suppressor (Homo sapiens, UniProt Q86U86+P40337); test: Protac activity at VHL/PBRM1 in human NCI-H1568 cells assessed as protein degradation; type: cell-based
[2] = target: T1, Protein polybromo-1/von Hippel-Lindau disease tumor suppressor; test: Protac activity at VHL/PBRM1 in human MV4-11 cells assessed as protein degradation; type: cell-based
[3] = target: T2, von Hippel-Lindau disease tumor suppressor/SWI/SNF-related matrix-associated actin-dependent regulator of chromatin subfamily A member 2 (Homo sapiens, UniProt P51531+P40337); test: Protac activity at VHL/SMARCA2 in human NCI-H1568 cells assessed as protein degradation; type: cell-based
Target sequence in this assay (P51531 whole entry): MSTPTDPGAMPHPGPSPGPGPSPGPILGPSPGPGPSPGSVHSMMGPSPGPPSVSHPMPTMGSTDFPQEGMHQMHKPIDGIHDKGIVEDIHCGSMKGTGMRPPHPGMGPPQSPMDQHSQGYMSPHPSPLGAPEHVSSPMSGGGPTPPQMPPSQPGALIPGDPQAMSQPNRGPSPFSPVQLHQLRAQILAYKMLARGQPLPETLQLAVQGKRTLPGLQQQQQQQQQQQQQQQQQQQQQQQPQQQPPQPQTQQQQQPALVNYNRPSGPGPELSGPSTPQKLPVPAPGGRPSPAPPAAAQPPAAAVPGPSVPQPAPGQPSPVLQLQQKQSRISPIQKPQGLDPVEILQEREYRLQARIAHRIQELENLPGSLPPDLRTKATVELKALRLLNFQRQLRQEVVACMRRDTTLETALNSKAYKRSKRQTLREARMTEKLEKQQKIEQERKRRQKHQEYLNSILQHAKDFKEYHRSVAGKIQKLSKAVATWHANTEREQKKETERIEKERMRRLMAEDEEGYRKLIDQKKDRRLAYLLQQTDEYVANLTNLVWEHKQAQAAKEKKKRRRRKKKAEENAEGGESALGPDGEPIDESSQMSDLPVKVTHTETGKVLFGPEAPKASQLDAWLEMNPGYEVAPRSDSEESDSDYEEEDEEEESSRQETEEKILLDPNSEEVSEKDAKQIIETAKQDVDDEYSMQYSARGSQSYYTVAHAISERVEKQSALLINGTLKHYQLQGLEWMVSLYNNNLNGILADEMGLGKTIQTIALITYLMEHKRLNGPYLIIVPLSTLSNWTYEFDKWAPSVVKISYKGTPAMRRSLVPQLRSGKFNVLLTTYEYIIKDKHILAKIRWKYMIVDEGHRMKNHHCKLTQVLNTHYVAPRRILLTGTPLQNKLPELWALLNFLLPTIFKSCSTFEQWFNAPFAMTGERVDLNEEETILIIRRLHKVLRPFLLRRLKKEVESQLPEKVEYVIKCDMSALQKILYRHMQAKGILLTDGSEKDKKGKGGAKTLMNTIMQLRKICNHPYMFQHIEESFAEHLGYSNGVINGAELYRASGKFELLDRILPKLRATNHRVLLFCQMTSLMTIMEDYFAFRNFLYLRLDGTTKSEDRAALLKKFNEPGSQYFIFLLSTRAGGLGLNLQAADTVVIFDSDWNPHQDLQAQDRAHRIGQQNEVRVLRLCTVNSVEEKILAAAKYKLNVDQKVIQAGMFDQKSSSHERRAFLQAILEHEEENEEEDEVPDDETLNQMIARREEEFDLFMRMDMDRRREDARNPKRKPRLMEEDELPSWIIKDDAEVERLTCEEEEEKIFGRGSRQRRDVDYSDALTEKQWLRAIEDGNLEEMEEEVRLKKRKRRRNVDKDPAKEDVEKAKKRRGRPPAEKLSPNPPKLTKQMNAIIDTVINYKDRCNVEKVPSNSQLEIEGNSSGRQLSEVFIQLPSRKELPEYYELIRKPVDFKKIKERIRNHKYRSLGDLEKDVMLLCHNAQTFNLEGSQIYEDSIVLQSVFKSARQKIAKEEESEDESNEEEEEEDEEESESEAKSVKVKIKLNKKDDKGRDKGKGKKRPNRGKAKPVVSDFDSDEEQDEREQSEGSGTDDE
Target sequence in this assay (P40337 whole entry): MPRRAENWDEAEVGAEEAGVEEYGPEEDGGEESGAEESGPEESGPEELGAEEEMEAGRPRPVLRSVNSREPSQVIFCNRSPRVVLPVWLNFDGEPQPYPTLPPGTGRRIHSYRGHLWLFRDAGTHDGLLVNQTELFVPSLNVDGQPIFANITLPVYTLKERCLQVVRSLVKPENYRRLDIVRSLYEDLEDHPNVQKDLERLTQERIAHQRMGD

[4] = target: von Hippel-Lindau disease tumor suppressor/ALK tyrosine kinase receptor (Homo sapiens, UniProt Q9UM73+P40337); test: Protac activity at VHL/ALK in human SR cells assessed as protein degradation
[5] = target: T3, Protein cereblon/Myc proto-oncogene protein (Homo sapiens, UniProt P01106+Q96SW2); test: PROTAC activity at MYC/CRBN in human HCT-116 cells assessed as degradation; type: cell-based
[6] = target: T3, Protein cereblon/Myc proto-oncogene protein; test: PROTAC activity at MYC/CRBN in human PSN1 cells assessed as degradation; type: cell-based
[7] = target: T4, Protein cereblon/Bromodomain-containing protein 4 (Homo sapiens, UniProt O60885+Q96SW2); test: Protac activity at CRBN/BRD4 in HEK293 cells assessed as protein degradation by measuring maximal efficacy relative to control; type: cell-based
T4 sequence (Q96SW2 whole entry, looked up, other chains not shown): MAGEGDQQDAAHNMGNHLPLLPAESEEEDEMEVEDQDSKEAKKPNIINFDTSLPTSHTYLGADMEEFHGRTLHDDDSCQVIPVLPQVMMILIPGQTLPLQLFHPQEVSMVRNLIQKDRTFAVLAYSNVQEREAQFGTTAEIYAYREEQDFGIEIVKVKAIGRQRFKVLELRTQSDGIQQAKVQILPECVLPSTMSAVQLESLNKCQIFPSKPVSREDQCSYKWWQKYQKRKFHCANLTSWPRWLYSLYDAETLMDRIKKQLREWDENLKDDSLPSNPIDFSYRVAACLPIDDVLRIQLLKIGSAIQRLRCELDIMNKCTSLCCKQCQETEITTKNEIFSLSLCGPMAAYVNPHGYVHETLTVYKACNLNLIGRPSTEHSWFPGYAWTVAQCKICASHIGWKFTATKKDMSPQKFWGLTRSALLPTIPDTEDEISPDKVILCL

[8] = target: T5, von Hippel-Lindau disease tumor suppressor/Fibroblast growth factor receptor 1 (Homo sapiens, UniProt P11362+P40337); test: Protac activity at VHL/FGFR1 in human CC-LP-1 cells assessed as protein degradation by measuring maximal efficacy relative to control; type: cell-based
[9] = target: T5, von Hippel-Lindau disease tumor suppressor/Fibroblast growth factor receptor 1; test: Protac activity at VHL/FGFR1 in human CC-LP-1 cells assessed as protein degradation; type: cell-based
[10] = target: T4, Protein cereblon/Bromodomain-containing protein 4; test: Protac activity at CRBN/BRD4 in human 22Rv1 cells assessed as degradation of BRD4; type: cell-based
[11] = target: T4, Protein cereblon/Bromodomain-containing protein 4; test: Protac activity at CRBN/BRD4 in HEK293T cells assessed as protein degradation by immunoblot analysis; type: cell-based
[12] = target: von Hippel-Lindau disease tumor suppressor/Bcl-2-like protein 1 (Homo sapiens, UniProt Q07817+P40337); test: Protac activity at VHL/BCL-xL in human HEK293T cells assessed as protein degradation; type: cell-based
von Hippel-Lindau disease tumor suppressor/Bcl-2-like protein 1, sequence (Q07817 whole entry): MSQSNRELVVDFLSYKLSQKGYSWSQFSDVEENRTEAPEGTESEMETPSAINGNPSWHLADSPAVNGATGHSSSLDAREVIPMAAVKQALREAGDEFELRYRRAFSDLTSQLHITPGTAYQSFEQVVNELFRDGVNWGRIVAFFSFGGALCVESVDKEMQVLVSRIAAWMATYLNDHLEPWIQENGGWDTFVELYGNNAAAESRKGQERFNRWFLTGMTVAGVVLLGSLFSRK
von Hippel-Lindau disease tumor suppressor/Bcl-2-like protein 1, sequence (P40337 whole entry): as the sequence (P40337 whole entry) above

[13] = target: von Hippel-Lindau disease tumor suppressor/Apoptosis regulator Bcl-2 (Homo sapiens, UniProt P10415+P40337); test: Protac activity at VHL/BCL-2 in human HEK293T cells assessed as protein degradation; type: cell-based
[14] = target: T2, von Hippel-Lindau disease tumor suppressor/SWI/SNF-related matrix-associated actin-dependent regulator of chromatin subfamily A member 2; test: Protac activity at VHL/SMARCA2 in human RKO cells assessed as induction of protein degradation by measuring maximal efficacy incubated for 18 hrs by capillary electrophoresis analysis relative to control; type: cell-based
Target sequence in this assay (P40337 whole entry, looked up): as the sequence (P40337 whole entry) above
Target sequence in this assay (P51531 whole entry, looked up): as the sequence (P51531 whole entry) above

[15] = target: T2, von Hippel-Lindau disease tumor suppressor/SWI/SNF-related matrix-associated actin-dependent regulator of chromatin subfamily A member 2; test: Protac activity at VHL/SMARCA2 in human RKO cells assessed as protein degradation incubated for 18 hrs by capillary electrophoresis analysis; type: cell-based
Target sequence in this assay (P51531 whole entry): as above
Target sequence in this assay (P40337 whole entry): as the sequence (P40337 whole entry) above

[16] = target: BRD4/E3 ubiquitin-protein ligase Mdm2 (Homo sapiens) (UniProt Q00987+O60885); test: Protac activity at MDM2/BRD4 in human HCT-116 cells assessed as induction of protein degradation by measuring maximal efficacy relative to control; type: cell-based
[17] = target: E3 ubiquitin-protein ligase XIAP/Tyrosine-protein kinase BTK (Homo sapiens, UniProt P98170+Q06187); test: Protac activity at IAP/BTK in human THP-1 cells assessed as protein degradation; type: cell-based
[18] = Oral bioavailability in mouse at 30 mg/kg; type: ADME, organism-based; details: in vivo
[19] = target: Protein cereblon/Tyrosine-protein kinase BTK (Homo sapiens) (UniProt Q06187+Q96SW2); test: Protac activity at CRBN/BTK in human NAMALVA cells assessed as protein degradation by measuring maximal efficacy after 24 hrs by Western blot analysis relative to control; type: cell-based
[20] = tested on: von Hippel-Lindau disease tumor suppressor/Leucine-rich repeat serine/threonine-protein kinase 2 (Mus musculus), Q5S006+P40338 [G2019S]; test: Protac activity at VHL/LRRK2 G2019S mutant in mouse MEF cells assessed as protein degradation at 33 nM after 4 hrs by Western blot analysis relative to control; type: cell-based
[21] = target: T6, von Hippel-Lindau disease tumor suppressor/Leucine-rich repeat serine/threonine-protein kinase 2 (Mus musculus) (UniProt Q5S006+P40338); test: Protac activity at VHL/wild type LRRK2 in mouse MEF cells assessed as induction of protein degradation by measuring maximal efficacy after 4 hrs by Western blot analysis relative to control; type: cell-based
[22] = Tmax in C57BL/6 mouse at 30 mg/kg, po; type: ADME, organism-based; details: in vivo
[23] = target: T6, von Hippel-Lindau disease tumor suppressor/Leucine-rich repeat serine/threonine-protein kinase 2 (Mus musculus); test: Protac activity at VHL/wild type LRRK2 in mouse MEF cells assessed as protein degradation at 33 nM after 4 hrs by Western blot analysis relative to control; type: cell-based
[24] = Cmax in C57BL/6 mouse at 30 mg/kg, ip; type: ADME, organism-based; design: dose 30 mg/kg, route ip; details: in vivo
[25] = tested on: von Hippel-Lindau disease tumor suppressor/Leucine-rich repeat serine/threonine-protein kinase 2 (Mus musculus), Q5S006+P40338 [G2019S]; test: Protac activity at VHL/LRRK2 G2019S mutant in mouse MEF cells assessed as protein degradation at 1 uM after 4 hrs by Western blot analysis relative to control; type: cell-based
[26] = target: von Hippel-Lindau disease tumor suppressor/Leucine-rich repeat serine/threonine-protein kinase 2 (Mus musculus, UniProt Q5S006+P40338, G2019S); test: Protac activity at VHL/LRRK2 G2019S mutant in mouse MEF cells assessed as protein degradation after 4 hrs by Western blot analysis; type: cell-based
[27] = Cmax in C57BL/6 mouse at 30 mg/kg, po; type: ADME, organism-based; design: dose 30 mg/kg, route po; details: in vivo
[28] = Tmax in C57BL/6 mouse at 30 mg/kg, ip; type: ADME, organism-based; details: in vivo
[29] = target: von Hippel-Lindau disease tumor suppressor/Leucine-rich repeat serine/threonine-protein kinase 2 (Mus musculus, UniProt Q5S006+P40338); test: Protac activity at VHL/wild type LRRK2 in mouse MEF cells assessed as protein degradation after 4 hrs by Western blot analysis; type: cell-based
[30] = tested on: von Hippel-Lindau disease tumor suppressor/Leucine-rich repeat serine/threonine-protein kinase 2 (Mus musculus), Q5S006+P40338 [G2019S]; test: Protac activity at VHL/LRRK2 G2019S mutant in mouse MEF cells assessed as induction of protein degradation by measuring maximal efficacy after 4 hrs by Western blot analysis relative to control; type: cell-based
[31] = Oral bioavailability in C57BL/6 mouse at 30 mg/kg; type: ADME, organism-based; details: in vivo
[32] = target: T7, Protein fem-1 homolog B/Bromodomain-containing protein 4 (Homo sapiens, UniProt O60885+Q9UK73); test: Protac activity at FEM1B/BRD4 in HEK293T cells assessed as degradation of BRD4; type: cell-based
T7 sequence (Q9UK73 whole entry, looked up, other chains not shown): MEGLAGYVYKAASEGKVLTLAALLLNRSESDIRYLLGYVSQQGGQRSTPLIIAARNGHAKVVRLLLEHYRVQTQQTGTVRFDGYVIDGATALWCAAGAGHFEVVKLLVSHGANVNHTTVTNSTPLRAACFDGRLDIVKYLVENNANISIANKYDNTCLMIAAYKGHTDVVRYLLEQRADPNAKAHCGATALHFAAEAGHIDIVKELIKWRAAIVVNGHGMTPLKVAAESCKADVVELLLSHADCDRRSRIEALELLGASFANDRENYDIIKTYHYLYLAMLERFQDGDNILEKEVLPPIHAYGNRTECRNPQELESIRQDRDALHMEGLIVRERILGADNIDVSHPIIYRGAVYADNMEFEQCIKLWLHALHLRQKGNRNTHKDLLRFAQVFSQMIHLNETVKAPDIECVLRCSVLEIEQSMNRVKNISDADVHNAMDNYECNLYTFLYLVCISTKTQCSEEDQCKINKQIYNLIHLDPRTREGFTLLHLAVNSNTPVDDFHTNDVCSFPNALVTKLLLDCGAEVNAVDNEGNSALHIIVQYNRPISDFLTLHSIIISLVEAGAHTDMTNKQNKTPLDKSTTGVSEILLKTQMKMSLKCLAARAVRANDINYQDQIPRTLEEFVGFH

[33] = target: T7, Protein fem-1 homolog B/Bromodomain-containing protein 4; test: Protac activity at FEM1B/BRD4 in HEK293T cells assessed as induction of protein degradation by measuring maximal efficacy relative to control; type: cell-based

T1 sequence (Q86U86 whole entry): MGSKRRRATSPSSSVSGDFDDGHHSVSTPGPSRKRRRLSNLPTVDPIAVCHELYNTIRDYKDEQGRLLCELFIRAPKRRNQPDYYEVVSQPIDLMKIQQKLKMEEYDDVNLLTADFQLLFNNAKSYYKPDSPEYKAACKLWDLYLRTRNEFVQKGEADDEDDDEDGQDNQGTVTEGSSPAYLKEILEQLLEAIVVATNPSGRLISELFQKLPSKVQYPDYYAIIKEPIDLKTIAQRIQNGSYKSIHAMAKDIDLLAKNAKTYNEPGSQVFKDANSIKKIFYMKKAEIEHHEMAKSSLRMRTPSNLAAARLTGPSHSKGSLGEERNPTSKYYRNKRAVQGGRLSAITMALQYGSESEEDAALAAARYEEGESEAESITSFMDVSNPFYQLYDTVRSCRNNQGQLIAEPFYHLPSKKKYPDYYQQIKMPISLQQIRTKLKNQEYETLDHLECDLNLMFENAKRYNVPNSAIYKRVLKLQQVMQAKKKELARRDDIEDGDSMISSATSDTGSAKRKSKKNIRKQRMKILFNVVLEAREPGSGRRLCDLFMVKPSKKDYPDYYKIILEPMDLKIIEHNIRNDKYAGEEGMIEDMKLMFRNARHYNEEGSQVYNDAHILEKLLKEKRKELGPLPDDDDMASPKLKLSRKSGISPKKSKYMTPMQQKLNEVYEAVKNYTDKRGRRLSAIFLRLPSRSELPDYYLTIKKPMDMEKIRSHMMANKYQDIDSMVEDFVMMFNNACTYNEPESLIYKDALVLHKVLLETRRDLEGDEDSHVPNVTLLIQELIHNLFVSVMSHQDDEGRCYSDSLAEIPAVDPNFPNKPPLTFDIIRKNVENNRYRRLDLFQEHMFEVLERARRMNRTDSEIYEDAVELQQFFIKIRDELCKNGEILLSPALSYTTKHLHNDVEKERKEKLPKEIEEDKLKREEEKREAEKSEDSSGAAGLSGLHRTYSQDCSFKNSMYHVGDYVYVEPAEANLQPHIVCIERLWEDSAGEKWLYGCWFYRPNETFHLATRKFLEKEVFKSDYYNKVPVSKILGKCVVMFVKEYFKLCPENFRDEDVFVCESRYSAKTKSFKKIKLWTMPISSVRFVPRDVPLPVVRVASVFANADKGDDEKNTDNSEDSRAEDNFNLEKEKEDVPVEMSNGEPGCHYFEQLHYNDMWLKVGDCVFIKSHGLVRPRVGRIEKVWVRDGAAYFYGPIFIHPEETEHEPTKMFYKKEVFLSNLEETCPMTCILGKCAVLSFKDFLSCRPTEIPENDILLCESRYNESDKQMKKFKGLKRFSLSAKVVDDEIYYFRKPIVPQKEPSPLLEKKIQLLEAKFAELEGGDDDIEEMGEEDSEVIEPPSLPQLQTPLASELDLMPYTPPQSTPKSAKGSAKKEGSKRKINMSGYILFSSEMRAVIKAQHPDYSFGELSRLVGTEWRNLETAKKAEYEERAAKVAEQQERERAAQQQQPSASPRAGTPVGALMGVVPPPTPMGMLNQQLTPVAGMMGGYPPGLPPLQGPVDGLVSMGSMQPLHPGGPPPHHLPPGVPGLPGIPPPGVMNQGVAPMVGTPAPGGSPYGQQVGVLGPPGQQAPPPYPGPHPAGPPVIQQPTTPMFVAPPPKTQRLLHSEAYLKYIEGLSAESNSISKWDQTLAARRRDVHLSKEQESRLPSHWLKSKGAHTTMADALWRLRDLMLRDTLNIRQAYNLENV
T1 sequence (P40337 whole entry): as the sequence (P40337 whole entry) above

Cc1ncsc1-c1ccc(CNC(=O)[C@@H]2C[C@@H](O)CN2C(=O)[C@@H](NC(=O)C2(F)CC2)C(C)(C)C)c(OCCOc2ccc(CN3CCN(c4cc(-c5ccccc5O)nnc4N)CC3)cc2)c1
DC50 [1]: 15.6 nM
DC50 [2]: 32 nM
DC50 [3]: 3.3 nM

COc1cc(N2CCC(N3CCN(C(=O)CCCCCCCCC(=O)N[C@H](C(=O)N4C[C@H](O)C[C@H]4C(=O)NCc4ccc(-c5scnc5C)cc4)C(C)(C)C)CC3)CC2)ccc1Nc1ncc(Cl)c(Nc2ccccc2P(C)(C)=O)n1
DC50 [4]: 7.5 nM

CC(C)c1ccc(/C=C2\SC(=O)N(CCCCCCCCNC(=O)c3ccc4c(c3)C(=O)N(C3CCC(=O)NC3=O)C4=O)C2=O)cc1 (configuration not stated)
DC50 [5]: 5000 nM
DC50 [6]: ~10000 nM

Cc1sc2c(c1C)C(c1ccc(Cl)cc1)=N[C@@H](CC(=O)NCCCCNC(=O)COc1cccc3c1C(=O)N(C1CCC(=O)NC1=O)C3=O)c1nnc(C)n1-2 (some centres not stated)
Emax [7]: 93%

COc1cc(OC)c(Cl)c(NC(=O)N(C)c2cc(Nc3ccc(N4CCN(CC(=O)N[C@H](C(=O)N5C[C@H](O)C[C@H]5C(=O)N[C@@H](C)c5ccc(-c6scnc6C)cc5)C(C)(C)C)CC4)cc3)ncn2)c1Cl
Emax [8]: 85%
DC50 [9]: 4.35 nM

Cc1sc2c(c1C)C(c1ccc(Cl)cc1)=N[C@H](CC(=O)Nc1cccc(OCCOCCOCCNc3cccc4nnn(C5CCC(=O)NC5=O)c(=O)c34)c1)c1nnc(C)n1-2 (some centres not stated)
DC50 [10]: 0.32 nM

COC(=O)C[C@@H]1N=C(c2ccc(Cl)cc2)c2c(sc(C(=O)NCCCCCNc3ccc4c(c3)C(=O)N(C3CCC(=O)NC3=O)C4=O)c2C)-n2c(C)nnc21 (some centres not stated)
DC50 [11]: 5 nM

Cc1ncsc1-c1ccc([C@H](C)NC(=O)[C@@H]2C[C@@H](O)CN2C(=O)[C@@H](NC(=O)CCCCCCC(=O)N2CCN(C[C@]3(C)CCC(c4ccc(Cl)cc4)=C(CN4CCN(c5ccc(C(=O)NS(=O)(=O)c6ccc(N[C@H](CCN7CCOCC7)CSc7ccccc7)c(S(=O)(=O)C(F)(F)F)c6)cc5)CC4)C3)CC2)C(C)(C)C)cc1
DC50 [12]: 6 nM
DC50 [13]: 48 nM

Cc1ncsc1-c1ccc(OCCCN2CCC(c3ccc4c(c3)n(C3CCCC3)c3nc(=O)c5c(Br)cccc5n43)CC2)c(CNC(=O)[C@@H]2C[C@@H](O)CN2C(=O)[C@@H](NC(=O)C2(F)CC2)C(C)(C)C)c1
Emax [14]: 46%
DC50 [15]: 78 nM

COc1cc(C(=O)NCCOCCOCCOCCNC(=O)C[C@@H]2N=C(c3ccc(Cl)cc3)c3c(sc(C)c3C)-n3c(C)nnc32)ccc1NC(=O)[C@@H]1N[C@@H](CC(C)(C)C)[C@](C#N)(c2ccc(Cl)cc2F)[C@H]1c1cccc(Cl)c1F
Emax [16]: 98%

CN[C@@H](C)C(=O)N[C@H](C(=O)N1CCC[C@H]1c1nc(C(=O)c2ccc(F)cc2)cs1)C1CCN(CCCC(=O)N2CCC[C@@H](n3nc(-c4ccc(Oc5ccc(F)cc5F)cc4)c(C(N)=O)c3N)C2)CC1
DC50 [17]: 4700 nM

Cc1ncsc1-c1ccc([C@H](CCCCCN2CCC(c3ccc4c(c3)n(C3CCCC3)c3nc(=O)c5c(Br)cccc5n43)CC2)NC(=O)C2C[C@@H](O)CN2C(=O)[C@@H](NC(=O)C2(F)CC2)C(C)(C)C)cc1 (some centres not stated)
bioavailability [18]: 3%
DC50 [15]: 32 nM

Nc1ncnc2c1c(-c1ccc(Oc3ccccc3)cc1)nn2C1CCN(CCOCCOCC(=O)Nc2ccc3c(c2)C(=O)N(C2CCC(=O)NC2=O)C3=O)CC1 (configuration not stated)
Emax [19]: 99%

CNc1nc(Nc2ccc(C(=O)N3CCN(C[C@H]4CC[C@H](CSC(C)(C)[C@H](NC(=O)C5(F)CC5)C(=O)N5C[C@H](O)C[C@@H]5C(=O)NCc5ccc(-c6scnc6C)cc5)CC4)CC3)cc2OC)ncc1Cl
Activity [20]: 50%
Emax [21]: 82%
Tmax [22]: 2 h
Activity [23]: 20%
Cmax [24]: 7700 ng/mL
Activity [25]: 30%
DC50 [26]: 14 nM
Cmax [27]: 3620 ng/mL
Tmax [28]: 0.25 h
DC50 [29]: 32 nM
Emax [30]: 90%
bioavailability [31]: 15%

Cc1sc2c(c1C)C(c1ccc(Cl)cc1)=N[C@@H](CC(=O)NCCCCNC(=O)CN1CCOc3cc(N(CCC#N)C(=O)CCl)ccc31)c1nnc(C)n1-2
DC50 [32]: 250 nM
Emax [33]: 94%

Cc1ncsc1-c1ccc([C@H](CC[C@H](C)CCN2CCC(c3ccc4c(c3)n(C3CCCC3)c3nc(=O)c5c(Br)cccc5n43)CC2)NC(=O)C2C[C@@H](O)CN2C(=O)[C@@H](NC(=O)C2(F)CC2)C(C)(C)C)cc1 (some centres not stated)
bioavailability [18]: 22%
DC50 [15]: 1 nM

CNc1nc(Nc2ccc(C(=O)N3CCN(CCCOc4cc(-c5scnc5C)ccc4CNC(=O)[C@H]4C[C@@H](O)CN4C(=O)[C@@H](NC(=O)C4(F)CC4)C(C)(C)C)CC3)cc2OC)ncc1Cl
Activity [20]: 60%
